Measurements as given in patent US20210338681A1, “COMBINATION THERAPIES” (SECURA BIO, INC., priority 2018, published 2021).
“Also recorded” adds a separate entry of the source.

What was measured:
human macrophages [1] = assay: Phagocytosis of CTV-labelled DLD-1 and Raji cells by human monocyte-derived macrophages, flow cytometry-based assay (Example 1); format: cell-based; settings: FIG. 1
Procedure: PBMC were isolated using a density gradient from healthy donor blood samples. CD14+ monocytes were then separated using magnetic selection and differentiated into MO macrophages for 6 days in the presence of M-CSF and 3000 nM of duvelisib or vehicle (DMSO). Two cell lines positive for surface expression of CD47, DLD-1 (ATCC® CCL-221™) and Raji cells (ATCC® CCL-86™), were labelled with cell trace violet (CTV). These were then offered to the macrophage cultures in the presence of duvelisib or vehicle control for 4 hours to allow phagocytosis to occur. For the part of the assay where a CD47 blocking antibody and an opsonizing antibody were used, CD47 blocking antibody at 1 μg/ml (clone B6H12) and rituximab (for Raji cells) or cetuximab (for DLD-1 cells) at 1 μg/ml were added during the 4 hours co-culture. The effect of duvelisib on the capacity of macrophages to phagocytose target cells was determined in a flow cytometry-based assay.

human macrophages [2] = assay: Phagocytosis of CTV-labelled Raji cells by human monocyte-derived macrophages with anti-CD47 clone 5F9, flow cytometry-based assay (Example 2); format: cell-based; settings: 3000 nM duvelisib during last 3 days of differentiation; CD47 blocking antibody clone 5F9 300 ng/ml, 2 hours; compared to duvelisib or anti-CD47 alone; FIG. 2
Procedure: PBMC were isolated using a density gradient from healthy donor blood samples. CD14+ monocytes were then separated using magnetic selection and differentiated into MO macrophages for 6 days in the presence of M-CSF. Duvelisib (3000 nM) or vehicle (DMSO) were added during the last 3 days of differentiation. Raji cells (ATCC® CCL-86™), which are positive for surface expression of CD47, were labelled with cell trace violet (CTV). These cells were then offered to the macrophage cultures in the presence of CD47 blocking antibody at 300 ng/ml (clone 5F9) for 2 hours to allow phagocytosis to occur. The effect of duvelisib on the capacity of macrophages to phagocytose target cells was determined in a flow cytometry-based assay.

## C[C@H](Nc1ncnc2[nH]cnc12)c1cc2cccc(Cl)c2c(=O)n1-c1ccccc1 [duvelisib, (S)-3-(1-((9H-purin-6-yl)amino)ethyl)-8-chloro-2-phenylisoquinolin-1(2H)-one]
Human macrophages [1]; 3000 nM duvelisib vs vehicle (DMSO) during 6 days differentiation with M-CSF and 4 hours co-culture, target cells DLD-1 and Raji, two representative donors per condition
  phagocytosis by human macrophages, duvelisib as a single agent: increases phagocytosis; also recorded: increasing phagocytosis
Human macrophages [1]; 3000 nM duvelisib, CD47 blocking antibody clone B6H12 1 μg/ml plus rituximab (Raji cells) or cetuximab (DLD-1 cells) 1 μg/ml during 4 hours co-culture
  phagocytosis by human macrophages, duvelisib in combination with anti-CD47 (clone B6H12) and an opsonizing antibody: increases phagocytosis; also recorded: increasing phagocytosis
Human macrophages [2]
  phagocytosis of Raji Burkitt's lymphoma cells by human macrophages, duvelisib in combination with anti-CD47 (clone 5F9): enhances phagocytosis; also recorded: increasing phagocytosis
